Patent EP1137645B1, “ALPHA-METHYLBENZYL-CONTAINING THIOUREA INHIBITORS OF HERPES VIRUSES CONTAINING A […] GROUP” (Wyeth, priority 1998, dated 2000)
Converted amounts (≈) assume the structure as drawn. Like-named read-outs stand apart in the source and are kept apart here.

Key:
[1] = tested on: HCMV recombinant mutant virus whose genome contains the prokaryotic beta-glucuronidase gene; test: microbe, parasite or virus in culture; assay type: cell-based, human cytomegalovirus; conditions: Human betaherpesvirus 5, Fibroblast
How it was run: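 Antiviral IC50 estimated from reduced reporter activity across compound amounts: lysates prepared 96 h after infection were tested with p-nitrophenyl- or methylumbelliferyl-glucuronide. Cells were human foreskin fibroblasts, infected alongside inhibitor with HCMV (e.g. RV145) expressing viral promoter-driven beta-glucuronidase.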

[2] = tested on: HSV- I; test: HSV antiviral (ELISA) assay; assay type: cell-based; conditions: read-out: IC50 (ug/ml) HSV
How it was run: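 IC50 from fluorescence versus untreated control in a cell ELISA: anti-glycoprotein D antibody, β-galactosidase-conjugated secondary, 4-methyl umbelliferone read at 365/450 nm. Vero cells (2% FBS DMEM) received compound 30 min pre-infection with HSV-1 at MOI 0.006, fixed ~24 h post-infection.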

[3] = tested on: VZV strain Ellen; test: VZV antiviral (ELISA) assay; assay type: cell-based
How it was run: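 HFF cells infected with VZV Ellen at multiplicity below 0.1 overnight, then mixed infected/uninfected cells seeded with compound in DMEM/2% FBS and incubated three days at 37°C, 5% CO2.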

[4] = Human alphaherpesvirus 3, read-out: % inhibition 10 ug/ml VZV, 10 ug/ml, VZV strain Ellen, HFF cells, ELISA
[5] = Human alphaherpesvirus 3, VZV strain Ellen, HFF cells, ELISA, read-out: IC50 (ug/ml) VZV
[6] = read-out: IC50 ug/ml HCMV, HCMV, human foreskin fibroblasts
[7] = Human alphaherpesvirus 3, HFF, read-out: % inhibition 10 ug/ml VZV
[8] = Human alphaherpesvirus 3, HFF, read-out: IC50 (ug/ml) VZV
[9] = Human alphaherpesvirus 3, HFF, read-out: IC50 (ug/ml) VZV, VZV strain Ellen, HFF cells, ELISA

| SMILES | IC50 ([1]; read-out: IC50 ug/ml HCMV) [µg/mL] | IC50 ([2]; HSV- I, Vero cells, ELISA) [µg/mL] | inhibition at 10 µg/mL [3, 4] [%] | IC50 [3, 5] [µg/mL] | IC50 [1, 6] [µg/mL] | inhibition at 10 µg/mL [3, 7] [%] | IC50 [3, 8] [µg/mL] | IC50 ([2]; Vero) [µg/mL] | IC50 [3, 9] [µg/mL] |
| --- | --- | --- | --- | --- | --- | --- | --- | --- | --- |
| O=C(Nc1ccc(NC(=S)Nc2cc(C(F)(F)F)cc(C(F)(F)F)c2)cc1)c1ccccc1F [Example 517, N-{4-[3-(3,5-Bis-trifluoromethyl-phenyl)-thioureido]-phenyl}-2-fluoro-benzamide] | 1.1 (≈ 2.19 µM) | > 10 | 5 | > 10 |  |  |  |  |  |
| O=C(Nc1ccc(NC(=S)NCc2cccc(Cl)c2)cc1)c1ccccc1F [Example 511, N-{4-[3-(3-Chloro-benzyl)-thioureido]-phenyl}-2-fluoro-benzamide] |  | > 10 |  |  | > 10 | 10 | > 10 |  |  |
| O=C(Nc1ccc(NC(=S)Nc2ccc(Cl)c(Cl)c2)cc1)c1ccccc1F [Example 912, N-{4-[3-(3,4-Dichloro-phenyl)-thioureido]-phenyl}-2-fluoro-benzamide] |  | 8 (≈ 18.4 µM) |  |  | > 10 | 21 | > 10 |  |  |
| CC(NC(=S)Nc1ccc(NC(=O)c2cc3ccccc3cn2)cc1)c1ccc(Br)cc1 (stereo not drawn) [Example 987, Isoquinoline-3-carboxylic acid (4-{3-[1-(4-bromo-phenyl)-ethyl]-thioureido}-phenyl)-amide] |  |  |  |  | 1.5 (≈ 2.97 µM) |  |  | 3 (≈ 5.94 µM) | 0.046 (≈ 0.091 µM) |
| CCOC(=O)COc1cccc(C(=O)Nc2ccc(NC(=S)Nc3cc(Cl)c(OC)cc3OC)cc2)c1 [Example 221, (3-{4-[3-(5-Chloro-2,4-dimethoxy-phenyl)-thioureido]-phenylcarbamoyl}-phenoxy)-acetic acid ethyl ester] |  | > 10 |  |  | > 10 | 17 | > 10 |  |  |
| CC(=O)Oc1ccc(C(=O)Nc2ccc(NC(=S)NC(C)c3ccc(F)cc3)cc2)cc1 (stereo not drawn) [Example 757, Acetic acid 4-(4-{3-[1-(4-fluoro-phenyl)-ethyl]-thioureido}-phenylcarbamoyl)-phenyl ester] |  |  |  |  | > 10 |  |  | > 10 | 1.5 (≈ 3.32 µM) |
| COc1cc(OC)c(NC(=S)Nc2ccc(NC(=O)c3c(F)c(F)c(F)c(F)c3F)cc2)cc1Cl [Example 193, N-{4-[3-(5-Chloro-2,4-dimethoxy-phenyl)-thioureido]-phenyl}-2,3,4,5,6-pentafluoro-benzamide] |  | 1.5 (≈ 2.82 µM) |  |  | > 10 | 106 | 3.8 (≈ 7.14 µM) |  |  |
| O=C(Nc1ccc(NC(=S)Nc2cccc(O)c2)cc1)c1ccccc1F [Example 475, 2-Fluoro-N-{4-[3-(3-hydroxy-phenyl)-thioureido]-phenyl}-benzamide] | > 10 | 5 (≈ 13.1 µM) | 28 | > 10 |  |  |  |  |  |
| COc1c(Cl)cc(NC(=S)Nc2ccc(NC(=O)c3cccc(F)c3)cc2)cc1Cl [Example 872, N-{4-[3-(3,5-Dichloro-4-methoxy-phenyl)-thioureido]-phenyl}-3-fluoro-benzamide] |  | 4 (≈ 8.61 µM) |  |  | 0.6 (≈ 1.29 µM) | 28 | > 10 |  |  |
| O=C(Nc1ccc(NC(=S)Nc2cccc(C(F)(F)F)c2)cc1)c1ccccc1F [Example 433, 2-Fluoro-N-{4-[3-(3-trifluoromethyl-phenyl)-thioureido]-phenyl}-benzamide] | > 10 | > 10 | 0 | > 10 |  |  |  |  |  |
| CN(C)c1ccc(NC(=S)Nc2ccc(NC(=O)c3c(F)cccc3F)cc2)cc1Cl [Example 348, N-{4-[3-(3-Chloro-4-dimethylamino-phenyl)-thioureido]-phenyl}-2,6-difluoro-benzamide] |  | 4 (≈ 8.68 µM) |  |  | 0.8 (≈ 1.74 µM) | 95 | 8 (≈ 17.4 µM) |  |  |
| CC(NC(=S)Nc1ccc(NC(=O)c2ccccc2F)cc1)c1cccc(C(F)(F)F)c1 (stereo not drawn) [Example 786, 2-Fluoro-N-(4-{3-[1-(3-trifluoromethyl-phenyl)-ethyl]-thioureido}-phenyl)-benzamide] | 1.5 (≈ 3.25 µM) | > 10 |  | > 7.5 |  |  |  |  |  |
| O=C(Nc1ccc(NC(=S)Nc2ccc3[nH]cnc3c2)cc1)c1ccccc1F [Example 496, N-{4-[3-(1H-Benzoimidazol-5-yl)-thioureido]-phenyl}-2-fluoro-benzamide] | 10 (≈ 24.7 µM) | > 10 | 25 | > 10 |  |  |  |  |  |
| COc1cc(OC)c(NC(=S)Nc2ccc(NC(=O)c3cccc(F)c3F)cc2)cc1Cl [Example 186, N-{4-[3-(5-Chloro-2,4-dimethoxy-phenyl)-thioureido]-phenyl}-2,3-difluoro-benzamide] |  | 0.2 (≈ 0.418 µM) |  |  | > 10 | 52 | > 10 |  |  |
| CC(NC(=S)Nc1ccc(NC(=O)c2ccccc2F)cc1)c1cc2ccccc2o1 (stereo not drawn) [Example 1002, N-{4-[3-(1-Benzofuran-2-yl-ethyl)-thioureido]-phenyl}-2-fluoro-benzamide] |  |  |  |  | 2.1 (≈ 4.84 µM) |  |  | > 10 | 0.08 (≈ 0.185 µM) |
| CC(NC(=S)Nc1ccc(NC(=O)c2ccccc2F)cc1)c1ccc(N(C)C)cc1 (stereo not drawn) [Example 793, N-(4-{3-[1-(4-Dimethylamino-phenyl)-ethyl]-thioureido}-phenyl)-2-fluoro-benzamide] |  |  |  |  | 3.2 (≈ 7.33 µM) |  |  | 9 (≈ 20.6 µM) | 3.1 (≈ 7.1 µM) |
| CC(NC(=S)Nc1ccc(NC(=O)c2cccc3cccnc23)cc1)c1ccc(F)cc1 (stereo not drawn) [Example 991, Quinoline-8-carboxylic acid (4-{3-[1-(4-fluoro-phenyl)-ethyl]-thioureido}-phenyl)-amide] |  | > 10 |  |  | 7.4 (≈ 16.6 µM) |  | 0.1 (≈ 0.225 µM) |  |  |
| CC(NC(=S)Nc1ccc(NC(=O)c2ccnc3ccccc23)cc1)c1ccc(F)cc1 (stereo not drawn) [Example 989, Quinoline-4-carboxylic acid (4-{3-[1-(4-fluoro-phenyl)-ethyl]-thioureido}-phenyl)-amide] |  | 4.1 (≈ 9.22 µM) |  |  | 2.9 (≈ 6.52 µM) |  | 3 (≈ 6.75 µM) |  |  |
| CN(C)c1cccc(NC(=S)Nc2ccc(NC(=O)c3ccccc3F)cc2)c1 [Example 454, N-{4-[3-(3-Dimethylamino-phenyl)-thioureido]-phenyl}-2-fluoro-benzamide] |  | 1.5 (≈ 3.67 µM) |  |  | 4 (≈ 9.79 µM) | 55 | > 10 |  |  |
| CCOC(=O)Nc1ccc(NC(=S)Nc2ccc(NC(=O)c3ccccc3F)cc2)cc1Cl [Example 399, (2-Chloro-4-{3-[4-(2-fluoro-benzoylamino)-phenyl]-thioureido}-phenyl)-carbamic acid ethyl ester] |  |  |  |  | 1.5 (≈ 3.08 µM) | 59 |  | > 10 | > 10 |
| COc1cc(OC)c(NC(=S)Nc2ccc(NC(=O)c3ccccc3C)cc2)cc1Cl [Example 114, N-{4-[3-(5-Chloro-2,4-dimethoxy-phenyl)-thioureido]-phenyl}-2-methyl-benzamide] |  | 0.3 (≈ 0.658 µM) |  |  | 5 (≈ 11 µM) | 17 | > 10 |  |  |
| CC(NC(=S)Nc1ccc(NC(=O)c2ccccc2)cc1)c1ccc(F)cc1 (stereo not drawn) [Example 758, N-(4-{3-[1-(4-Fluoro-phenyl)-ethyl]-thioureido}-phenyl)-benzamide] | > 10 | > 10 |  | > 10 |  |  |  |  |  |
| COc1cc(C)c(Cl)cc1NC(=S)Nc1ccc(NC(=O)c2ccccc2F)cc1Cl [Example 458, N-{3-Chloro-4-[3-(5-chloro-2-methoxy-4-methyl-phenyl)-thioureido]-phenyl}-2-fluoro-benzamide] |  | 0.06 (≈ 0.125 µM) |  |  | > 10 | 25 | > 10 |  |  |
